Consider two compounds from US20160199380A1, “Sigma Ligands For the Prevention or Treatment of Pain Induced by Chemotherapy” (Laboratorios del Dr. Esteve, S.A., priority 2009, published 2016).

For data set [1], the system named is patients treated with paclitaxel. To be noted: paclitaxel dose 135 mg/m^2; cited from earlier work.
The test system of data set [2] is paclitaxel-induced mechanical allodynia. Nature of the data set: Electronic Von Frey (Dynamic Plantar Aesthesiometer), paclitaxel-induced mechanical allodynia in mice. The class given is in vivo, CD-1 mice. To be noted: paclitaxel 2 mg/kg i.p. during 5 days. The procedure: (§1) Experiments were performed in CD-1 mice (Charles River, U.S.A.) with at least n=10/experimental group. […] Control animals received the same volume of solvent (a mixture of ethanol and cremophor EL)
(§2) Mechanical allodynia was evaluated with an electronically driven Von Frey filament (Dynamic Plantar. Aesthesiorneter, Ugo Basile, Varese, Italy) as previously described (Nieto et al., Pain, 2008, 137(3), 520-31), and cold allodynia was evaluated using the acetone drop method (Nieto et al., Pain, 2008, 137(3), 520-31). […] In addition, in order to study the influence of the sigma 1 receptor in this process the difference in development of allodynia was determined using wild-type mice and sigma 1-receptor knock-out-mice.
Therefore, the cumulative dose was 10 mg/kg per mouse. In the control group the vehicle of paclitaxel was administered following the same schedule.
Compound 63 was dissolved in normal saline just before administration and applied at doses of 8, 16, 32 or 64 mg/kg subcutaneously.
The effects of Compound 63 on paclitaxel-induced neuropathic pain were examined in two different ways. […] The response of the animals to the different nociceptive stimuli was tested subsequently during 2-4 weeks, depending on the test (see below), without any additional treatment. Each animal was tested only in one nociceptive model. To test the effect of compound 63 on the expression of paclitaxel-induced pain, a single compound 63 injection was performed on day 10, a day of maximum expression of mechanical allodynia or cold aliodynia (see figures for details). Each animal received only one dose of compound 63 and was tested in only one nociceptive model.
Procedure for assessment of mechanical allodynia. To assess mechanical allodynia, paw withdrawal thresholds were measured using a Dynamic Plantar Aesthesiometer (Ugo Basile, Italy). The electronic Von Frey device employs a single nonflexible filament which applies a progressively increasing force (from 0 to 10 g) against the plantar surface of the hind paw over a 20 a period. […] The day of the experiment, mice were placed individually in test compartments (9×9×14 cm) with a wire mesh bottom and allowed to acclimatize to them for 2 h. After habituation, each mouse was tested three times alternately in each hind paw.
On that day, paw withdrawal latency was recorded immediately before (time 0) and at several times (30, 60, 90, 120 and 180 min) after the injection of compound 63 or saline.

In data set [3] the test system is paclitaxel-induced cold allodynia. The data set can be described thus: Acetone test, paclitaxel-induced cold allodynia in mice. Conditions: paclitaxel 2 mg/kg i.p. once daily during 5 days; mice. The class given is in vivo, CD-1 mice. The protocol:
as §1, §2
Therefore, the cumulative dose was 10 mg/kg per mouse. […]
The response of the animals to the different nociceptive stimuli was tested subsequently during 2-4 weeks, depending on the test (see below), without any additional treatment. Each animal was tested only in one nociceptive model. […] Each animal received only one dose of compound 63 and was tested in only one nociceptive model.
Procedure for assessment of cold allodynis. Cold allodynia was tested as previously described by Nieto et al., Pain, 2008, 137(3), 520-31, by gently touching the plantar skin of the hind paws with an acetone bubble formed with a syringe connected to a thin polyethylene tube. The mice were housed and habituated for 30 min in transparent plastic boxes (7×7×13 cm) with a floor made of wire mesh. After the adaptation period, acetone was applied alternately three times to each paw at intervals of 30 s, and the duration of licking or biting were recorded. A small mirror was placed behind the chambers to allow clear observation of the paws. The time spent licking or biting the paw was recorded by a stopwatch and represented as the cumulative time of licking/biting in the six measurements. Since licking persisting more than 10 s in the experiments was very unusual, a cut-off time of 10 s was used for each trial.
Therefore, the day 10, after the habituation period to the apparatus, baseline latencies were recorded, 30 min later compound 63 or saline was injected s.c. and paw withdrawal latencies were assessed again 60, 120 and 180 minutes after the injection.
(§3) On that day, duration of hind paw licking/biting was recorded immediately before (time 0) and at several times (60, 120 and 180 min) after the injection of compound 63 or saline.
as §3

The test system of data set [4] is Oxaliplatin-induced cold allodynia. Nature of the data set: Acetone test, chronic model of oxaliplatin-induced neuropathy in rats. It is filed as in vivo, Sprague-Dawley rats. Conditions: for cumulative cold score (acetone test) / reaction time of paw withdrawal (acetone test): 0.5% HPMC/Oxaliplatin-treated group; for decrease in the reaction time of paw withdrawal as compared to the HPMC/distilled water-treated group: oxaliplatin 3 mg/kg i.p. 3 times a week + 0.5% HPMC. The protocol: Sixty male Sprague-Dawley rats (CERJ, France), weighing 136-169 g at the beginning of the experimental phase (first administration of compounds on D-2), were used. Rats were housed in a temperature (19.5° C.-24.5° C.) and relative humidity (45%-65%) controlled room with a 12 h—light/dark cycle, with ad libitum access to standard pelleted laboratory chow and water throughout the study.
All treatments were administered in a coded order when it is possible.
Animals were tested 2 times during treatment with compound 63 (i.e. D8 and D15) and once 24 h after completion of treatment with compound 63 (i.e. D16).
During the testing days (i.e. D8, D15), compound 63 and 0.5% HPMC were administered 30 min before the test.
Cold allodynia was assessed by measuring the responses to thermal non-nocic ptive stimulation (acetone test) on D8, D15 and D16.
Cold allodynia was assessed using the acetone test. In this test, latency of hindpaw withdrawal was measured after application of a drop of acetone to the plantar surface of both hindpaws (reaction time) and the intensity of tne response was scored (cold score).
Reaction time to the cooling effect of acetone was measured within 20 sec (cut-off) after acetone application. Responses to acetone were also graded to the following 4-point scale: 0 (no response); 1 (quick withdrawal, flick of the paw); 2 (prolonged withdrawal or marked flicking of the paw); 3 (repeated flicking of the paw with licking or biting).
For each experimental group, the results were expressed as: • The reaction time defined as the time expressed in sec required to elicit paw reaction (mean of 6 measures for each rat together±SEM). • The cumulative cold score defined as the sum of the 6 scores for each rat together±SEM. The minimum score being 0 (no response to any of the 6 trials) and the maximum possible score being 18 (repeated flicking and licking or biting of paws on each of the six trials).
Statistical significance between the treated groups and the vehicle-treated group was determined by a Two-way Repeated Measures ANOVA on Ranks followed, when the F value is significant, by an appropriate post-hoc comparison (Bonferroni's test sing SigmaStet software. The significance level was p<0.05. Statistical analyses were done using SigmaStet software.

With `CC(=O)O[C@H]1C(=O)[C@@]2(C)[C@H]([C@H](OC(=O)c3ccccc3)[C@]3(O)C[C@H](OC(=O)[C@H](O)[C@@H](NC(=O)c4ccccc4)c4ccccc4)C(C)=C1C3(C)C)[C@]1(OC(C)=O)CO[C@@H]1C[C@@H]2O` [Paclitaxel], the “patients progressing to dose-limiting neurotoxicity” value in data set [1] is 0%. Further, in data set [2], the “animals showing a reduction of the mechanical threshold” value was determined as 96% and the “non-responder animals (mechanical threshold on day 10 not lower than pretreatment)” value is given as “about 4%”. Besides, in data set [2] (day 10), the “induction of mechanical allodynia (threshold force for paw withdrawal, Von Frey test)” value was “induced mechanical allodynia”. In data set [3], the “animals with significantly increased time licking/biting the stimulated paw (paclitaxel-responder animals)” value is on record as 67% and the “paclitaxel-treated animals that did not show cold allodynia” value is given as 33%.

Consider `O=C1[O][Pt]2([NH][C@@H]3CCCC[C@H]3[NH]2)[O]C1=O` [Oxaliplatin, reference compound], for which the “cumulative cold score (acetone test)” value stood at 5.0±0.8 in data set [4] (D8), 7.0±1.2 in data set [4] (D15) and 6.7±0.9 in data set [4] (D16). The “reaction time of paw withdrawal (acetone test)” value in data set [4] (D8) came out at 14.7 ± 0.9 s; in data set [4] (D15), 11.5 ± 1.6 s; in data set [4] (D16), 11.5 ± 0.9 s. The “decrease in the reaction time of paw withdrawal as compared to the HPMC/distilled water-treated group” value is −19% in data set [4] (D8), −37% in data set [4] (D15) and −36% in data set [4] (D16).
